Laboratory results: patent publication US20250127908A1, “HETEROBIFUNCTIONAL CONDITIONAL INHIBITORS” (Kolm Therapeutics Inc., priority 2023, published 2025)

Assays:
[1] = tested on: VCaP cells; experiment: VCaP growth inhibition assay (CTG); format: cell-based; details: Homo sapiens, 216 h, 30 pM R1881, 9-day treatment, CTG luminescence
Procedure: Example B-2: VCaP Growth Inhibition Assay
VCaP cells (ATCC Cat #CRL-2876) are plated at 1×10^4 cells per well of a white plastic 96-well cluster plate (Thermo Scientific Nunc Cat #165306) in 100 uL phenol red-free DMLEM (Gibco Cat #21063-029) media with […] (Omega Scientific Cat #FB-04). Cluster plates are returned to the incubator (37*C/5% CO2) for 72 hours prior to treatment. Just prior to treatment, 100 uL of phenol red-free DMEM/5% CSS and 60 pM Ri881 (Sigma Cat #R0908-10 mg) was added to each well of the cluster plates (Final R1881 concentration=30 pM). Compounds (200×) were added to each well in a volume of 1 uL, with serial dilutions (1:5) from 20 uM to 2 pM (final concentrations in well are 100 nM to 10 fMV). Cluster plates are returned to the incubator for 9 days.
(§1) After the 9-day treatment period, media was removed from the cluster plates by inversion and 100 uL room temperature CTG reagent (Promega Cat #G7573) is added to each well. The cluster plates are placed on a shaker and incubated at room temperature for 20 minutes. Following this shaking/incubation, cluster plates are read on a luminometer (BMG ClarioStar). IC50 values are obtained by graphing the RLU data vs. compound concentration with nonlinear regression 4-parameter logistic curves (GraphPad Prism).

[2] = tested on: HEK-293 cells; experiment: HEK-293 growth inhibition assay (CTG); format: cell-based; details: Homo sapiens, HEK293, 72 h, 3-day treatment, CTG luminescence
Procedure: Example B-4: HEK-293 Growth Inhibition Assay
HEK-293 cells (ATCC Cat #CRL-1573) are plated at 3×10^3 cells per well of a white plastic 96-well cluster plate (Thermo Scientific Nunc Cat #165306) in 200 uL DMLEM (ATCC Cat #30-2002) media with 10% FBS (Gibco Cat #26140-079). Cluster plates are returned to the incubator (37*C/5% CO2) for 24 hours prior to treatment. Compounds (200×) were added to each well in a volume of 1 uL, with serial dilutions (1:5) from 2 mM to 200 pM (final concentrations in well are 10 uM to 1 pM). Cluster plates are returned to the incubator for 3 days.
as §1, with “3-day” for “9-day”, “period, 100 uL” for “period,”, “each well” for “the cluster plates”, “aspiration” for “inversion”, “added back” for “added”, “ICs50” for “IC50”

IC50 [1]: 1 to 100 nM
SMILES: CNC(=O)N1CCc2c(c(N3CCCc4cc(-c5cnn(C)c5)c(C(F)F)cc43)nn2C2CCN(C(=O)COCCOCC3CCN(CC4CCN(c5ccc([C@H]6c7ccc(O)cc7CC[C@H]6c6ccccc6)cc5)CC4)CC3)CC2)C1 [Compound 10, 3-[7-(difluoromethyl)-6-(1-methylpyrazol-4-yl)-3,4-dihydro-2H-quinolin-1-yl]-1-[1-[2-[2-[[1-[[1-[4-(6-hydroxy-2-phenyl-tetralin-1-yl)phenyl]-4-piperidyl]methyl]-4-piperidyl]methoxy]ethoxy]acetyl]-4-piperidyl]-N-methyl-6,7-dihydro-4H-pyrazolo[4,3-c]pyridine-5-carboxamide]
IC50 [2]: > 1000 nM
